In ChEMBL document CHEMBL1821669, “Cyclic depsipeptides, grassypeptolides D and E and Ibu-epidemethoxylyngbyastatin 3, from a Red Sea Leptolyngbya cyanobacterium” (J Nat Prod, 2011) one finds IC50 data, which are given here for five molecules.

Numbered stars: 1 amine (or outer) side, 2 acyl side, 3 side chain; on linkers, the order of the positions; unused ones are H or OH. Square brackets hold non-standard residues; d marks the D form. Peptide text beside a SMILES is read from it. X2 = CCC[C@@H](N[*:1])[C@H](C)C(=O)O[C@H](C(=O)[*:2])[C@@H](C)CC; X3 = CC[C@H](C)[C@H](OC(=O)[C@@H](C)[C@@H](CC)N[*:1])C(=O)[*:2]; dAbuψ(thiazoline)Cys = CC[C@@H](N[*:1])C1=N[C@H](C(=O)[*:2])CS1; X4 = CN([C@@H](Cc1ccccc1)C1=N[C@H](C(=O)[*:2])CS1)[*:1]; dβ3hAla(2R-Me) = C[C@@H](N[*:1])[C@@H](C)C(=O)[*:2]; X1 = C[C@H](N[*:1])C(=O)C(C)(C)C(=O)[*:2]; d(aThr) = C[C@@H](O)[C@@H](N)C(=O)O; NMeF = CN[C@@H](Cc1ccccc1)C(=O)O; PhLac = O=C(O)[C@@H](O)Cc1ccccc1; NMeL = CN[C@@H](CC(C)C)C(=O)O; dNMeL = CN[C@H](CC(C)C)C(=O)O; NMeV = CN[C@H](C(=O)O)C(C)C; NMeA = CN[C@@H](C)C(=O)O

A word on the IC50: it is the concentration that inhibits the measured activity by half. High values mean lower potency, low ones higher potency.

A short description of experiment [1]: Cytotoxicity against mouse Neuro2a cells after 48 hrs by MTT assay. The note with it: N2a. The class given is functional, cell-based. Background: Tetrazolium dyes change colour on reduction, which living cells bring about.
For the next experiment, the system named is HeLa. Briefly: Cytotoxicity against human HeLa cells after 48 hrs by MTT assay. The class given is functional, cell-based.

Regarding `CCC[C@H]1NC(=O)[C@H](C)N(C)C(=O)C(C)(C)C(=O)[C@H](C)NC(=O)[C@H](Cc2ccccc2)N(C)C(=O)[C@H](C(C)C)N(C)C(=O)CNC(=O)[C@H](CC(C)C)N(C)C(=O)CNC(=O)[C@H]([C@@H](C)CC)OC(=O)[C@H]1C` (cyclo(G[NMeL]G[NMeV][NMeF][X1][NMeA][X2])), the IC50 in experiment [1] was over 10 µM. Consider `CC[C@H](C)[C@@H]1OC(=O)[C@@H](C)[C@@H](CC)NC(=O)[C@H](C)N(C)C(=O)C(C)(C)C(=O)[C@H](C)NC(=O)[C@H](Cc2ccccc2)N(C)C(=O)[C@H](C(C)C)N(C)C(=O)CNC(=O)[C@H](CC(C)C)N(C)C(=O)CNC1=O` [DOLASTATIN 12] (cyclo(G[NMeL]G[NMeV][NMeF][X1][NMeA][X3])), for which, in experiment [1], the IC50 is over 1 µM. Consider `CC[C@H]1NC(=O)[C@@H]2CSC(=N2)[C@H](Cc2ccccc2)N(C)C(=O)[C@@H]2CCCN2C(=O)[C@H](C(C)C)N(C)C(=O)[C@H](Cc2ccccc2)OC(=O)[C@H](C)[C@@H](C)NC(=O)[C@@H]([C@@H](C)O)NC(=O)[C@@H](CC(C)C)N(C)C(=O)[C@@H]2CSC1=N2` [GRASSYPEPTOLIDE C] (cyclo([NMeV]P[X4][dAbuψ(thiazoline)Cys][dNMeL][d(aThr)][dβ3hAla(2R-Me)][PhLac])), for which the half-maximal inhibitory concentration (IC50) with HeLa was 0.045 µM. In the case of `CC[C@H]1NC(=O)[C@@]2(C)CSC(=N2)[C@H](Cc2ccccc2)N(C)C(=O)[C@@H]2CCCN2C(=O)[C@H](C(C)C)N(C)C(=O)[C@H](Cc2ccccc2)OC(=O)[C@H](C)[C@@H](C)NC(=O)[C@@H]([C@@H](C)O)NC(=O)[C@@H](CC(C)C)N(C)C(=O)[C@@H]2CSC1=N2` [GRASSYPEPTOLIDE D], the half-inhibitory concentration (IC50) in the experiment on HeLa turned out to be 0.335 µM; in experiment [1], 0.599 µM.

As to `CC[C@H]1NC(=O)[C@@]2(C)CSC(=N2)[C@H](Cc2ccccc2)N(C)C(=O)[C@@H]2CCCN2C(=O)[C@H](C(C)C)N(C)C(=O)[C@H](Cc2ccccc2)OC(=O)[C@H](C)[C@@H](C)NC(=O)[C@H]([C@@H](C)O)NC(=O)[C@H](CC(C)C)N(C)C(=O)[C@@H]2CSC1=N2` [GRASSYPEPTOLIDE E], the concentration for half-maximal inhibition (IC50) in the experiment with HeLa amounted to 0.192 µM; in experiment [1] it was 0.407 µM.
